Twelve compounds from patent publication US20260297060A1, “COMPOUNDS FOR THE DEGRADATION OF MUTANT BRAF” (C4 THERAPEUTICS, INC., priority 2023, published 2026) can be followed below.

A word on the GI50: it is the concentration that inhibits growth by half. A high value points to less potent growth inhibition.

Like-named read-outs stand apart in the source and are kept apart here. Bounds are passed on as bounds.

In one test the target is T1, BRAF V600E (Homo sapiens, UniProt P15056+Q96SW2, V600E).
T1 construct: knock-in of the HiBiT tag to the endogenous BRAF V600E locus; host or cells: A375.10 (A375 clonal line, CRISPR HiBiT knock-in at the endogenous BRAF V600E locus)
T1 sequence (P15056 whole entry V600E): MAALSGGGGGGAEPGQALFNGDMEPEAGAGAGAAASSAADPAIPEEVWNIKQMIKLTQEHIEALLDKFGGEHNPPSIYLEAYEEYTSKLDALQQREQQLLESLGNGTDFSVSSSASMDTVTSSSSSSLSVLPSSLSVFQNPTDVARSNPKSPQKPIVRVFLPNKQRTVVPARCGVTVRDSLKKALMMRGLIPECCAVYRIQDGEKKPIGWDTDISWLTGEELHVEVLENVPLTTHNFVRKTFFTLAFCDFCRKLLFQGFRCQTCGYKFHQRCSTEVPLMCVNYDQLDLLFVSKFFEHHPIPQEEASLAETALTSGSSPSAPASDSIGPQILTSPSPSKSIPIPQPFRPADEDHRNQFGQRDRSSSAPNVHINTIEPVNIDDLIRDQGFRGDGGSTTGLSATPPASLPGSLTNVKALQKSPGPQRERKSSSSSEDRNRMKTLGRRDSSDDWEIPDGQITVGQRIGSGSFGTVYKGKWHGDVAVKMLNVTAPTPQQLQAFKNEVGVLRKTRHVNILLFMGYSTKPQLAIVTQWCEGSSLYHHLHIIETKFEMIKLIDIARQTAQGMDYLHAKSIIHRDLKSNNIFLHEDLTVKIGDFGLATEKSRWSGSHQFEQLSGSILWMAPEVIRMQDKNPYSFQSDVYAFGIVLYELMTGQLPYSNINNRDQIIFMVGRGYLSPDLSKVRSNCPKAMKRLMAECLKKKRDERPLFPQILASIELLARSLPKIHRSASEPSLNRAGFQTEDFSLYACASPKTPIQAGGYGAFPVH
T1 sequence (Q96SW2 whole entry): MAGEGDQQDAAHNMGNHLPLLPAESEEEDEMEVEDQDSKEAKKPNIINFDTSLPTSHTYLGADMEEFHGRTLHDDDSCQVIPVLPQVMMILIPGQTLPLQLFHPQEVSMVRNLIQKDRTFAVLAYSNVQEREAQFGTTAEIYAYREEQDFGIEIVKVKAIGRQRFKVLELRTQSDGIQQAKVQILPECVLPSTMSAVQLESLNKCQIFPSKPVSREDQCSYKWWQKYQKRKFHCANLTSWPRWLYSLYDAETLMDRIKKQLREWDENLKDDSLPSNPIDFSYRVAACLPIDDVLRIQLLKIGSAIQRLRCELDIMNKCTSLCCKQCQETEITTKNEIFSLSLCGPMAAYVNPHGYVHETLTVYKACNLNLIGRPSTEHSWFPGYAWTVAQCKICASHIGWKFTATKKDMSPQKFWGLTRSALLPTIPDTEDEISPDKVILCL
T1 sequence (Q16531 whole entry partner): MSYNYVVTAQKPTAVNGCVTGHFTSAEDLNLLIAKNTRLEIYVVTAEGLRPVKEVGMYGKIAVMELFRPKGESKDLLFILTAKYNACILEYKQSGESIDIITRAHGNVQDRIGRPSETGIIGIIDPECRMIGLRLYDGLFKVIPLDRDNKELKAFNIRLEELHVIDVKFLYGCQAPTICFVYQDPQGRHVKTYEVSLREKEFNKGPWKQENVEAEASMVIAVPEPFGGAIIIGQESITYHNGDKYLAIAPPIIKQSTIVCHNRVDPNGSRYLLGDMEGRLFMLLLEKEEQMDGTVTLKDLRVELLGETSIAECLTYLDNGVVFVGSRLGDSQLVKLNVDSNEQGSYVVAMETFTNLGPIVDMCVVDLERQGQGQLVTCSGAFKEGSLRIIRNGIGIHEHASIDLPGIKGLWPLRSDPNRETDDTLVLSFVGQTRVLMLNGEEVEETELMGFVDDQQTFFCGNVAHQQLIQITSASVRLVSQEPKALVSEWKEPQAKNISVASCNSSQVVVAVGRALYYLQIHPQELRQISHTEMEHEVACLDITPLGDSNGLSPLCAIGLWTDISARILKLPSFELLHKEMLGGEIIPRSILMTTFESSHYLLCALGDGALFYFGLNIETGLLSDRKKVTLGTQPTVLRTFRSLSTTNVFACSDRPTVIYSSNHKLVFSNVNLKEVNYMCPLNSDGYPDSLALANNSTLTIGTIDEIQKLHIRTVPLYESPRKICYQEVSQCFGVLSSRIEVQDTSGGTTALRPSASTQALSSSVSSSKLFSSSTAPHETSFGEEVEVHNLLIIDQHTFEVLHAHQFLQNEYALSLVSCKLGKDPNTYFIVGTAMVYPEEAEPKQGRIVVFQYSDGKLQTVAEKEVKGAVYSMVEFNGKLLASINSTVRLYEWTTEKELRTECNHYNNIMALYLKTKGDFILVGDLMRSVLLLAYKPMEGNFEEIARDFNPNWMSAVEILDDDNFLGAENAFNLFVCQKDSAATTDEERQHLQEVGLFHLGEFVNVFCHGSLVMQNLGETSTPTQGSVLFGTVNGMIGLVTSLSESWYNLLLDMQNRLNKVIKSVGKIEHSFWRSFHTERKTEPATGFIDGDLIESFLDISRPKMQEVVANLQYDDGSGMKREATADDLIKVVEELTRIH
Description: BRAF V600E HiBiT Degradation Assay. It counts as cell-based. The note with it: A375.10 cells, BRAF V600E. A digest of the protocol:
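Endogenous HiBiT knock-in on BRAF V600E in A375 cells (clone A375.10); 11-point half-log series, top 10 μM, 2, 6 or 24 h at 37° C. Lytic HiBiT luminescence, background-subtracted, normalized to DMSO; 4-parameter fit gives DC50, Emax (residual protein) and IP (inflection point).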

Another test has as its system A375-NRAS^Q61K cells. Briefly: CTGlo Cell Viability Assay, A375-NRAS^Q61K (A375.11) cells, 96 hours. It counts as cell-based, human. The settings on record: A375.11 (A375-NRAS^Q61K) cells. The procedure, abridged: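 A375 cells carrying BRAF V600E and NRAS Q61K were seeded at 250 cells/well with a 10-point half-log dose series (max 10 μM final). After 96 h at 37 °C, viability was read as ATP luminescence (CellTiter-Glo), background-subtracted and normalized to DMSO (100%). GI50 from 4-parameter fit; Emax is the lowest % viability.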

Where [1] appears, read: 2 hours, inflection point, read-out: HiBiT-Degradation A375.10 BRAF 2 hours IP.
[2] abbreviates: 2 hours, read-out: HiBiT-Degradation A375.10 BRAF 2 hours DC50.
Setting [3] is: 2 hours, residual protein remaining, read-out: HiBiT-Degradation A375.10 BRAF 2 hours Emax.
[4] abbreviates: HiBiT, 24 hours, read-out: HiBiT-Degradation A375.10 BRAF 24 hours DC50.
Setting [5] is: HiBiT, 24 hours, read-out: HiBiT-Degradation A375.10 BRAF 24 hours Emax.
The mark [6] stands for this setting: HiBiT, 24 hours, read-out: HiBiT-Degradation A375.10 BRAF 24 hours IP.
The mark [7] stands for this setting: Homo sapiens, 96 h, lowest % viability achieved.
The mark [8] stands for this setting: 2 hours, residual protein remaining.
[9] abbreviates: 6 hours, inflection point, read-out: HiBiT-Degradation A375.10 BRAF 6 hours IP.
Where [10] appears, read: 6 hours, read-out: HiBiT-Degradation A375.10 BRAF 6 hours DC50.

Regarding `CCN(C)S(=O)(=O)Nc1ccc(F)c(Oc2ccc3ncn(C4CC5(C4)CN(CC4CCN(c6cc7c(cc6F)c(N6CCC(=O)NC6=O)nn7C)CC4)C5)c(=O)c3c2)c1C#N` [Compound 296, 6-[2-cyano-3-[[ethyl(methyl)sulfamoyl]amino]-6-fluoro-phenoxy]-3-[2-[[1-[3-(2,4-dioxohexahydropyrimidin-1-yl)-5-fluoro-1-methyl-indazol-6-yl]-4-piperidyl]methyl]-2-azaspiro[3.3]heptan-6-yl]-4-oxo-quinazoline], the DC50 on BRAF V600E (setting [1]), at BRAF V600E (setting [2]), at BRAF V600E (setting [4]) and at BRAF V600E (setting [6]) was < 1000 nM throughout. Besides, the Emax at BRAF V600E (setting [3]) is 50 to 90%; at BRAF V600E (setting [5]), < 50%; with A375-NRAS^Q61K cells (setting [7]) it was 50 to 90%. Further, the 50% growth inhibitory concentration (GI50) in the test with A375-NRAS^Q61K cells (Homo sapiens, 96 h) is < 1000 nM.
On to `CCN(C)S(=O)(=O)Nc1ccc(F)c(Oc2ccc3ncn(C4CC5(CC(N6CC[C@H](c7cc8c(cc7F)c(N7CCC(=O)NC7=O)nn8C)C(F)(F)C6)C5)C4)c(=O)c3c2)c1C#N` (stereo partly drawn) [Compound 217, 6-[2-cyano-3-[[ethyl(methyl)sulfamoyl]amino]-6-fluoro-phenoxy]-3-[2-[(4R)-4-[3-(2,4-dioxohexahydropyrimidin-1-yl)-5-fluoro-1-methyl-indazol-6-yl]-3,3-difluoro-1-piperidyl]spiro[3.3]heptan-6-yl]-4-oxo-quinazoline], for which the DC50 at BRAF V600E (setting [1]) and at BRAF V600E (setting [2]) was < 1000 nM each time. The Emax was < 50% at BRAF V600E (setting [3]) and 50 to 90% in the test with A375-NRAS^Q61K cells (setting [7]). The 50% growth inhibitory concentration (GI50) in the test on A375-NRAS^Q61K cells (Homo sapiens, 96 h) is 1000 to 10000 nM.
As to `CCN(C)S(=O)(=O)Nc1ccc(F)c(Oc2ccc3ncn(C4CC5(C4)CN(CC4CN(c6cc7c(cc6F)c(N6CCC(=O)NC6=O)nn7C)C4)C5)c(=O)c3c2)c1C#N` [Compound 313], the DC50 at BRAF V600E (setting [1]), on BRAF V600E (setting [2]), at BRAF V600E (setting [4]) and at BRAF V600E (setting [6]) was < 1000 nM throughout. In addition, the Emax was 50 to 90% on BRAF V600E (setting [3]), < 50% on BRAF V600E (setting [5]) and 50 to 90% in the test with A375-NRAS^Q61K cells (setting [7]). For the same compound, the GI50 with A375-NRAS^Q61K cells (Homo sapiens, 96 h) is < 1000 nM.
Take `CCN(C)S(=O)(=O)Nc1ccc(F)c(Oc2ccc3ncn([C@H]4CO[C@]5(CCN(C6CCC(c7cc8c(cc7F)c(N7CCC(=O)NC7=O)nn8C)CC6)C5)C4)c(=O)c3c2)c1C#N` (single isomer, unassigned) [Compound 288]: the DC50 at BRAF V600E (setting [1]) was < 1000 nM; on BRAF V600E (setting [2]), 1000 to 10000 nM. The Emax on BRAF V600E (setting [3]) and in the test with A375-NRAS^Q61K cells (setting [7]) was 50 to 90% throughout. Besides, in the test with A375-NRAS^Q61K cells, the concentration for 50% growth inhibition (GI50) was > 10000 nM.
Consider `CN(CCO)S(=O)(=O)Nc1ccc(F)c(Oc2ccc3ncc([C@H]4COC5(CCN(C6CCC(c7cc8c(cc7F)c(N7CCC(=O)NC7=O)nn8C)CC6)CC5)C4)nc3c2)c1C#N` (single isomer, unassigned) [Compound 176], for which the DC50 on BRAF V600E (setting [1]) and at BRAF V600E (setting [2]) was < 1000 nM in each case. Moreover, the Emax at BRAF V600E (setting [3]) is < 50%; with A375-NRAS^Q61K cells (setting [7]), 50 to 90%. In the test with A375-NRAS^Q61K cells (Homo sapiens, 96 h), the 50% growth inhibitory concentration (GI50) was < 1000 nM.
Take `CCN(C)S(=O)(=O)Nc1ccc(F)c(Oc2ccc3ncn(C4CC5(CCN(C6CCN(c7cc8c(cc7F)c(N7CCC(=O)NC7=O)nn8C)CC6(F)F)CC5)C4)c(=O)c3c2)c1C#N` (centres unmarked) [Compound 253, 6-[2-cyano-3-[[ethyl(methyl)sulfamoyl]amino]-6-fluoro-phenoxy]-3-[7-[1-[3-(2,4-dioxohexahydropyrimidin-1-yl)-5-fluoro-1-methyl-indazol-6-yl]-3,3-difluoro-4-piperidyl]-7-azaspiro[3.5]nonan-2-yl]-4-oxo-quinazoline]: the DC50 on BRAF V600E (setting [1]) is < 1000 nM; at BRAF V600E (setting [2]), > 10000 nM. For the same compound, the Emax on BRAF V600E (setting [3]) is 50 to 90%; in the test with A375-NRAS^Q61K cells (setting [7]) it was < 50%. For the same compound, the GI50 in the test on A375-NRAS^Q61K cells (Homo sapiens, 96 h) was 1000 to 10000 nM.
Consider `CCN(C)S(=O)(=O)Nc1ccc(F)c(Oc2ccc3ncn(C4CC5(CC(N6CC[C@@H](c7cc8c(cc7F)c(N7CCC(=O)NC7=O)nn8C)C(F)(F)C6)C5)C4)c(=O)c3c2)c1C#N` (stereo partly drawn) [Compound 227, 6-[2-cyano-3-[[ethyl(methyl)sulfamoyl]amino]-6-fluoro-phenoxy]-3-[2-[(4S)-4-[3-(2,4-dioxohexahydropyrimidin-1-yl)-5-fluoro-1-methyl-indazol-6-yl]-3,3-difluoro-1-piperidyl]spiro[3.3]heptan-6-yl]-4-oxo-quinazoline], for which the DC50 on BRAF V600E (setting [1]) and at BRAF V600E (setting [2]) was < 1000 nM each time. Also, the Emax on BRAF V600E (setting [3]) was < 50%; with A375-NRAS^Q61K cells (setting [7]), 50 to 90%. For the same compound, the GI50 in the test with A375-NRAS^Q61K cells (Homo sapiens, 96 h) lay in the range of 1000 to 10000 nM.
Take `CC(C)S(=O)(=O)Nc1ccc(F)c(Oc2ccc3ncc(C4CC5(CCN(C6CCC(c7cc8c(cc7F)c(N7CCC(=O)NC7=O)nn8C)CC6)CC5)C4)nc3c2)c1C#N` (single isomer, unassigned) [Compound 248, N-[2-cyano-3-[3-[7-[4-[3-(2,4-dioxohexahydropyrimidin-1-yl)-5-fluoro-1-methyl-indazol-6-yl]cyclohexyl]-7-azaspiro[3.5]nonan-2-yl]quinoxalin-6-yl]oxy-4-fluoro-phenyl]propane-2-sulfonamide]: the DC50 at BRAF V600E (setting [1]) and on BRAF V600E (setting [2]) was < 1000 nM in each case. Besides, the Emax was < 50% at BRAF V600E (setting [3]) and 50 to 90% in the test on A375-NRAS^Q61K cells (setting [7]). The GI50 in the test with A375-NRAS^Q61K cells (Homo sapiens, 96 h) lay within 1000 to 10000 nM.
For the compound `CCN(C)S(=O)(=O)Nc1ccc(F)c(Nc2ccc3ncn([C@H]4COC5(CCN(C6CCC(c7ccc(NC8CCC(=O)NC8=O)cc7F)CC6)CC5)C4)c(=O)c3c2)c1C#N` (single isomer, unassigned) [Compound 57], the DC50 at BRAF V600E (setting [1]), at BRAF V600E (setting [2]), on BRAF V600E (setting [9]), on BRAF V600E (setting [10]), on BRAF V600E (setting [4]) and at BRAF V600E (setting [6]) was < 1000 nM each time. Further, the “HiBiT-Degradation A375.10 BRAF 2 hours Emax” value at BRAF V600E (setting [8]) was “*** (<=50%)”. Besides, the Emax on BRAF V600E (6 hours, residual protein remaining, read-out: HiBiT-Degradation A375.10 BRAF 6 hours Emax) is < 50%; at BRAF V600E (setting [5]), < 50%. For the same compound, in the test with A375-NRAS^Q61K cells, the GI50 lay in the range of 1000 to 10000 nM. Further, the “CTGlo A375.11 96 hours Emax” value in the test on A375-NRAS^Q61K cells (lowest % viability achieved) is “** (<90% and >50%)”.
As for `CCN(C)S(=O)(=O)Nc1ccc(F)c(Oc2ccc3ncn(C4CC5(CCN([C@H]6C[C@@H](c7cc8c(cc7F)c(N7CCC(=O)NC7=O)nn8C)C6)CC5)C4)c(=O)c3c2)c1C#N` [Compound 209, 6-[2-cyano-3-[[ethyl(methyl)sulfamoyl]amino]-6-fluoro-phenoxy]-3-[7-[3-[3-(2,4-dioxohexahydropyrimidin-1-yl)-5-fluoro-1-methyl-indazol-6-yl]cyclobutyl]-7-azaspiro[3.5]nonan-2-yl]-4-oxo-quinazoline], the DC50 at BRAF V600E (setting [1]) and on BRAF V600E (setting [2]) was < 1000 nM throughout. In addition, the Emax at BRAF V600E (setting [3]) is 50 to 90%; in the test on A375-NRAS^Q61K cells (setting [7]) it was < 50%. For the same compound, the GI50 in the test on A375-NRAS^Q61K cells (Homo sapiens, 96 h) was 1000 to 10000 nM.
On to `CCN(C)S(=O)(=O)Nc1ccc(F)c(Oc2ccc3ncn(C4CCC5(CC4)CCN(C4CCC(c6cc7c(cc6F)c(N6CCC(=O)NC6=O)nn7C)CC4)CC5)c(=O)c3c2)c1C#N` (single isomer, unassigned) [Compound 12], for which the DC50 at BRAF V600E (setting [1]) and at BRAF V600E (setting [2]) was < 1000 nM each time. For the same compound, the Emax on BRAF V600E (setting [3]) and with A375-NRAS^Q61K cells (setting [7]) was < 50% each time. In the test with A375-NRAS^Q61K cells, the GI50 is < 1000 nM.
Regarding `CC(C)S(=O)(=O)Nc1ccc(F)c(Oc2ccc3ncn(C4CC5(CCN(C6CCC(c7cc8c(cc7F)c(N7CCC(=O)NC7=O)nn8C)CC6)CC5)C4)c(=O)c3c2)c1C#N` (single isomer, unassigned) [Compound 96, N-[2-cyano-3-[3-[7-[4-[3-(2,4-dioxohexahydropyrimidin-1-yl)-5-fluoro-1-methyl-indazol-6-yl]cyclohexyl]-7-azaspiro[3.5]nonan-2-yl]-4-oxo-quinazolin-6-yl]oxy-4-fluoro-phenyl]propane-2-sulfonamide], the DC50 at BRAF V600E (setting [1]), on BRAF V600E (setting [2]), on BRAF V600E (setting [9]), at BRAF V600E (setting [10]), at BRAF V600E (setting [4]) and on BRAF V600E (setting [6]) was < 1000 nM throughout. Besides, the “HiBiT-Degradation A375.10 BRAF 2 hours Emax” value at BRAF V600E (setting [8]) is given as “*** (<=50%)”. Moreover, on BRAF V600E (6 hours, residual protein remaining), the “HiBiT-Degradation A375.10 BRAF 6 hours Emax” value is “*** (<=50%)”. Further, the “HiBiT-Degradation A375.10 BRAF 24 hours Emax” value on BRAF V600E (HiBiT, 24 hours) is recorded as “*** (<=50%)”. Also, in the test on A375-NRAS^Q61K cells, the concentration for 50% growth inhibition (GI50) was < 1000 nM.
